Assay results as given in ChEMBL document CHEMBL1275577, “Study of the in vitro activities of rifaximin and comparator agents against 536 anaerobic intestinal bacteria from the perspective of potential utility in pathology involving bowel flora” (Antimicrob Agents Chemother, 2009).

Experiments:
Type in all cases: functional
[1] = tested on: Bacteroides fragilis; assay: Antimicrobial activity against Bacteroides fragilis by Wadsworth agar dilution method
[2] = tested on: Parabacteroides goldsteinii; assay: Antimicrobial activity against Parabacteroides goldsteinii by Wadsworth agar dilution method
[3] = tested on: Desulfovibrio fairfieldensis; assay: Antimicrobial activity against Desulfovibrio fairfieldensis by Wadsworth agar dilution method
[4] = tested on: Fusobacterium necrophorum; assay: Antimicrobial activity against Fusobacterium necrophorum by Wadsworth agar dilution method
[5] = tested on: Porphyromonas asaccharolytica; assay: Antimicrobial activity against Porphyromonas asaccharolyticus by Wadsworth agar dilution method
[6] = tested on: Hoylesella loescheii; assay: Antimicrobial activity against Prevotella loescheii by Wadsworth agar dilution method
[7] = tested on: Clostridium bolteae; assay: Antimicrobial activity against Clostridium bolteae by Wadsworth agar dilution method; conditions: Enterocloster bolteae
[8] = tested on: Clostridium cocleatum; assay: Antimicrobial activity against Clostridium cocleatum by Wadsworth agar dilution method; conditions: Thomasclavelia cocleata
[9] = tested on: Clostridium leptum; assay: Antimicrobial activity against Clostridium leptum by Wadsworth agar dilution method
[10] = tested on: Schaalia odontolytica; assay: Antimicrobial activity against Actinomyces odontolyticus by Wadsworth agar dilution method
[11] = tested on: Atopobium minutum; assay: Antimicrobial activity against Atopobium minutum by Wadsworth agar dilution method
[12] = tested on: Bifidobacterium adolescentis; assay: Antimicrobial activity against Bifidobacterium adolescentis by Wadsworth agar dilution method
[13] = tested on: Bifidobacterium bifidum; assay: Antimicrobial activity against Bifidobacterium bifidum by Wadsworth agar dilution method
[14] = tested on: Bifidobacterium pseudolongum; assay: Antimicrobial activity against Bifidobacterium pseudolongum by Wadsworth agar dilution method
[15] = tested on: Pseudoramibacter alactolyticus; assay: Antimicrobial activity against Eubacterium alactolyticum by Wadsworth agar dilution method
[16] = tested on: Limosilactobacillus fermentum; assay: Antimicrobial activity against Lactobacillus fermentum by Wadsworth agar dilution method
[17] = tested on: Propionibacterium avidum; assay: Antimicrobial activity against Propionibacterium avidum by Wadsworth agar dilution method; conditions: Cutibacterium avidum
[18] = tested on: Anaerococcus prevotii; assay: Antimicrobial activity against Anaerococcus prevotii by Wadsworth agar dilution method
[19] = tested on: Finegoldia magna; assay: Antimicrobial activity against Finegoldia magna by Wadsworth agar dilution method
[20] = tested on: Blautia luti; assay: Antimicrobial activity against Ruminococcus luti by Wadsworth agar dilution method

NC[C@@H]1O[C@H](O[C@H]2[C@@H](O)[C@H](O[C@@H]3[C@@H](O)[C@H](N)C[C@H](N)[C@H]3O[C@H]3O[C@H](CN)[C@@H](O)[C@H](O)[C@H]3N)O[C@@H]2CO)[C@H](N)[C@@H](O)[C@@H]1O [FRAMYCETIN]
> 1020 µg/mL: MIC50 [1] | MIC90 [1] | MIC90 [2] | MIC90 [4] | MIC90 [5]
256 µg/mL: MIC50 [3] | MIC50 [7] | MIC50 [8] | MIC50 [9]
1020 µg/mL: MIC50 [2] | MIC90 [3] | MIC90 [6] | MIC90 [7] | MIC90 [8] | MIC90 [9] | MIC90 [10] | MIC90 [11] | MIC90 [12] | MIC90 [13] | MIC90 [14] | MIC90 [15] | MIC90 [16] | MIC90 [17]
512 µg/mL: MIC50 [4] | MIC50 [5] | MIC50 [6] | MIC90 [18] | MIC90 [19] | MIC90 [20]
128 µg/mL: MIC50 [10] | MIC50 [11] | MIC50 [12] | MIC50 [13] | MIC50 [14] | MIC50 [15] | MIC50 [16] | MIC50 [17] | MIC50 [18] | MIC50 [19] | MIC50 [20]

CC(=O)Oc1ccccc1C(=O)Nc1ncc([N+](=O)[O-])s1 [NITAZOXANIDE]
4 µg/mL: MIC50 [1] | MIC90 [1] | MIC50 [2] | MIC90 [2] | MIC90 [3] | MIC50 [6] | MIC90 [7] | MIC90 [8] | MIC90 [9]
2 µg/mL: MIC50 [10] | MIC50 [11] | MIC50 [12] | MIC50 [13] | MIC50 [14] | MIC50 [15] | MIC50 [16] | MIC50 [17]
8 µg/mL: MIC90 [4] | MIC90 [6]
32 µg/mL: MIC90 [10] | MIC90 [11] | MIC90 [12] | MIC90 [13] | MIC90 [14] | MIC90 [15] | MIC90 [16] | MIC90 [17]
0.5 µg/mL: MIC50 [5] | MIC50 [7] | MIC50 [8] | MIC50 [9] | MIC50 [18] | MIC50 [19] | MIC50 [20]
1 µg/mL: MIC50 [3] | MIC50 [4] | MIC90 [5] | MIC90 [18] | MIC90 [19] | MIC90 [20]

CO[C@H]1/C=C/O[C@@]2(C)Oc3c(C)c(O)c4c(O)c(c5c(nc6cc(C)ccn65)c4c3C2=O)NC(=O)/C(C)=C\C=C\[C@H](C)[C@H](O)[C@@H](C)[C@@H](O)[C@@H](C)[C@H](OC(C)=O)[C@@H]1C [RIFAXIMIN]
0.25 µg/mL: MIC [1] | MIC50 [1] | MIC [2] | MIC50 [2] | MIC [5] | MIC50 [5] | MIC [6] | MIC50 [6] | MIC [7] | MIC50 [7] | MIC [8] | MIC50 [8] | MIC [9] | MIC50 [9] | MIC [18] | MIC50 [18] | MIC [19] | MIC50 [19] | MIC [20] | MIC50 [20]
> 1020 µg/mL: MIC90 [1] | MIC90 [4] | MIC90 [7] | MIC90 [8] | MIC90 [9] | MIC90 [10] | MIC90 [11] | MIC90 [12] | MIC90 [13] | MIC90 [14] | MIC90 [15] | MIC90 [16] | MIC90 [17]
1 µg/mL: MIC90 [2]
16 µg/mL: MIC50 [3] | MIC50 [4]
332 µg/mL: MIC90 [3]
0.5 µg/mL: MIC90 [5] | MIC90 [6] | MIC50 [10] | MIC50 [11] | MIC50 [12] | MIC50 [13] | MIC50 [14] | MIC50 [15] | MIC50 [16] | MIC50 [17]
4 µg/mL: MIC90 [18] | MIC90 [19] | MIC90 [20]
